In patent publication US8614231B2, “Immunosuppressor based on the blockage of TCR-Nck interaction” (Consejo Superior de Investigaciones Cientificas, priority 2008, dated 2013):
Entries after “also recorded” stand apart in the source; their conditions may differ.

Tests used:
[1] = tested on: Human Jurkat T lymphocyte cell line; assay: Toxicity by propidium iodide exclusion and flow cytometry, Jurkat; assay type: cell-based; conditions: 48 hours, even at the highest dose
Protocol: (§1) Human Jurkat T lymphocyte cell line and human Raji lymphoblastoid B cell line were incubated with the indicated concentrations of CBM-1 for 48 hours. The toxicity of the compound was estimated by propidium iodide exclusion and flow cytometry. The two cell lines remained with 100% viability after 48 hours, even at the highest dose of the compound.

[2] = tested on: human T lymphocytes; assay: Proliferation of human T lymphocytes stimulated with anti-CD3 antibodies (CFSE, flow cytometry); assay type: cell-based; conditions: for IC50: Homo sapiens, T-lymphocyte, 120 h, PBMNC, 5 days
Protocol: For the next round of selection of the compounds resulting from virtual screening with potential for blocking Nck-CD3ε interaction, PBMNC purified from healthy donors were labelled with fluorescence and incubated for 5 days on plates covered with anti-CD3 OKT3 antibodies in the presence of different doses of these compounds. Proliferation of T lymphocytes was evaluated by flow cytometry in accordance with the loss of green fluorescence (CFSE) within the CD8+ population.
(§2) PBMNCs purified from healthy donors were labelled with CFSE and incubated for 5 days on plates coated with anti-CD3 OKT3 antibody in the presence of various doses of the compounds indicated, among them CBM-1. The proliferation was evaluated by flow cytometry in accordance with the loss of green fluorescence (CFSE) within the CD4+ and CD8+ populations. A parallel experiment was performed on the proliferation of human IL2-dependent lymphoblasts. Purified PBMNC from healthy donors were stimulated with PHA for 48 hours and labelled with CFSE. The were subsequently cultured for 3 days in the presence of 100 IU/ml of human recombinant IL2 in the presence of concentrations of the compounds used, particularly CBM-1.

[3] = tested on: T lymphocytes; assay: Inhibitory action on the activation of T lymphocytes (summary statement); assay type: cell-based; conditions: both in mice and humans; concentrations as low as
Excerpt: It inhibited the production of IFNγ, IL-10 and TNFβ, as well as the generation of human cells that produce IFNγ in response to anti-CD3 and anti-CD28 in human lymphocytes stimulated with anti-CD3 and anti-CD28 antibodies.

[4] = tested on: human IL2-dependent lymphoblasts; assay: Proliferation of human IL2-dependent lymphoblasts (IL2R-dependent proliferation); assay type: cell-based; conditions: at concentrations of 20 μM; 100 IU/ml IL2, 3 days
Protocol: as §2

[5] = tested on: human T lymphocytes; assay: Cytokine secretion by human T lymphocytes (PBMNC) stimulated with anti-CD3 antibodies; assay type: cell-based; conditions: for IC50: Homo sapiens, T-lymphocyte, supernatant at 72 hours, anti-CD3
Protocol: Inhibition by CBM-1 of the secretion of cytokines by human T lymphocytes in response to stimulation with anti-CD3 antibodies. Peripheral blood mononuclear cells (PBMNC) purified from healthy donors were stimulated on plates coated with anti-CD3 OKT3 antibodies in the presence of various doses of CBM-1 for 72 hours. The concentration of the indicated cytokines in the supernatant (IL-10, IFN-γ, and TFN-β) was evaluated by multiparametric flow cytometry (BD cytometric bead array).
The effect of CBM-1 on the production of cytokines was measured in an assay in which human PBMNC were stimulated with anti-CD3 antibodies. The supernatant of these cells was collected at 72 hours and several cytokines were simultaneously measured by a flow cytometry assay.

[6] = tested on: OT-I transgenic mouse primary lymphocytes; assay: IL2 production and antigen-induced proliferation of mouse T lymphocytes; assay type: cell-based
Excerpt: Thus, Nck-CD3ε interaction as a molecular target for immunosuppressor development has been validated.

[7] = biological target: T1, SH3.1 domain of Nckα (Homo sapiens, UniProt P16333); assay: NMR chemical displacements in the SH3.1 domain on compound binding; conditions: residues Trp41 and Tyr50/Phe53 participate
T1 construct: The three-dimensional structure of the SH3.1 domain of Nckα
Protocol: Displacements of the amino acid residues in the SH3.1 domain caused by the interaction with compound CBM-1. The lateral chains of the amino acids that changed their position after binding the compound are represented. The changes are consequent to the binding of compound CBM-1 to the pocket visualised in virtual screening.
The three-dimensional structure of the SH3.1 domain of Nckα, in the presence and in the absence of peptide 11R085, was determined in parallel (with the collaboration of the laboratory of Professors María Angeles Jiménez and Manuel Rico, of the Instituto de Química-Física Rocasolano, CSIC, Madrid) (FIG. 6). This enabled validation of the prediction of the structural computer model used for virtual screening. In addition, it allowed measurement of the chemical displacements caused to the structure by compound CBM-1 (FIG. 7).
The displacements of residues in the SH3.1 domain validate the prediction of the interaction of the SH3.1 domain with CBM-1 at a molecular level and are consistent with the model.

[8] = tested on: human Raji lymphoblastoid B cell line; assay: Toxicity by propidium iodide exclusion and flow cytometry, Raji; assay type: cell-based; conditions: 48 hours, even at the highest dose
Protocol: as §1

[9] = tested on: C57BL/6 mouse spleen cells; assay: Intracellular IFNγ expression by mouse CD4+ T cells stimulated with anti-CD3 + anti-CD28; assay type: cell-based; conditions: Lymphocyte, anti-CD3 + anti-CD28 48 hours, then brefeldin A 6 hours, read-out: IC50 generation of IFNγ-secreting Th1 lymphocytes
Excerpt: Intracellular expression of IFNγ in response to stimulation with a mixture of anti-CD3 and anti-CD28.
The cells were first stained with CD4-PE and after fixing and rinsing they were stained with anti-IFNγ antibody.

[10] = 72 hours, up to concentrations of 30 μM

IC50 ([5]; read-out: IC50 IFNγ production): 300 nM
IC50 ([5]; read-out: IC50 IL10 production): 200 nM
IC50 ([5]; read-out: IC50 TNFβ production): 200 nM
binding to the SH3.1 domain (NMR) [7]: binds to a hydrophobic pocket
IC50 [9]: 800 nM
SMILES: c1ccc(C2=C(CN3CCCCC3)C(c3ccccc3)c3ccccc3O2)cc1 (centres unmarked) [CBM-1]
viability [1]: 100%
IC50 ([2]; anti-CD3 OKT3, CD4+ population, read-out: IC50 proliferation of CD4+ lymphocytes induced by anti-CD3): 2000 nM
IC50 ([2]; anti-CD3 OKT3, CD8+ population, read-out: IC50 proliferation of CD8+ lymphocytes induced by anti-CD3): 3000 nM
blocking activity on the proliferation of the lymphocytes (in words) ([2]; anti-CD3 OKT3, 5 days, compounds from virtual screening): highest activity and least toxicity; also recorded: best and least toxic
concentration with inhibitory action on the activation of T lymphocytes [3]: ≥ 0.1 µM
inhibition of the proliferation of human IL2-dependent lymphoblasts [4]: did not significantly inhibit
effect on the production of IL5 [5, 10]: did not show any effect; also recorded: no effect
effect on the production of IL6 [5, 10]: did not show any effect; also recorded: no effect
effect on the release of IL1-β ([5]; 72 hours, various doses): did not show any effect
proliferation of antigen-dependent mouse T lymphocytes (in words) [6]: inhibited
release of IL2 (in words) ([6]; mouse T lymphocytes): inhibited
viability [8]: 100%
